B1: rhCD73: recombinant human (rh) CD73 from Daresbury Proteins; CD73 mimic (protein, UniProt P21589 27-549, looked up)
5'-nucleotidase: WELTILHTNDVHSRLEQTSEDSSKCVNASRCMGGVARLFTKVQQIRRAEPNVLLLDAGDQYQGTIWFTVYKGAEVAHFMNALRYDAMALGNHEFDNGVEGLIEPLLKEAKFPILSANIKAKGPLASQISGLYLPYKVLPVGDEVVGIVGYTSKETPFLSNPGTNLVFEDEITALQPEVDKLKTLNVNKIIALGHSGFEMDKLIAQKVRGVDVVVGGHSNTFLYTGNPPSKEVPAGKYPFIVTSDDGRKVPVVQAYAFGKYLGYLKIEFDERGNVISSHGNPILLNSSIPEDPSIKADINKWRIKLDNYSTQELGKTIVYLDGSSQSCRFRECNMGNLICDAMINNNLRHTDEMFWNHVSMCILNGGGIRSPIDERNNGTITWENLAAVLPFGGTFDLVQLKGSTLKKAFEHSVHRYGQSTGEFLQVGGIHVVYDLSRKPGDRVVKLDVLCTKCRVPSYDPLKMDEVYKVILPNFLANGGDGFQMIKDELLRHDSGDQDINVVSTYISKMKVIYPAVEGRIKFS

Columns and labels:
CD39 deficient mice = conditions: cardiac, renal, hepatic, intestinal ischemia-reperfusion, exogenous supplementation; cited from earlier work
T/HS mice [1] = assay: Pulmonary neutrophil sequestration (lung MPO activity) after trauma/hemorrhagic shock; type: in vivo; conditions: for neutrophil sequestration / infiltration in lung (MPO activity): wild-type T/HS mice vs vehicle, i.p. pretreatment 30 min before shock, POM1 5 mg/kg, apyrase 125 U/kg, PSB 12379 50 mg/kg, rhCD73 2 mg/kg; for neutrophil infiltration (lung MPO activity): NECA pretreatment 0.0025 mg/kg
Procedure: (§1) In one set of studies, wild-type mice were randomly assigned into the following groups: trauma/sham shock (T/SS) receiving vehicle (saline), trauma/hemorrhagic shock (T/HS) receiving vehicle (saline), T/HS receiving POM1 (5 mg/kg), T/HS receiving apyrase (125 U/kg), T/HS receiving PSB 12379 (50 mg/kg), and T/HS receiving rhCD73 (2 mg/kg). In addition, in another group of studies, CD39^−/−, CD73^−/−, A2BAR^−/− and wild-type type mice were subjected to T/SS or T/HS. Some CD39^−/− and CD73^−/− were pretreated with NECA (0.0025 mg/kg). In pharmacological experiments, mice were pretreated intraperitoneally (30 min before T/SS or T/HS) with various agents.
(§2) The mice were given anesthesia using 1% isoflurane and their rectal temperature was maintained between 36.5 and 37.5° C. using a feedback-controlled homeothermic blanket heating system (Sumno-suite, Kent Scientific). Hemorrhagic shock was induced using a fixed-pressure model. Initially, a midline laparotomy of 2 cm was performed on the anesthetized mice, which was later closed with a 4-0 silk suture (034902, Covetrus, USA). Following this, catheters were placed in the right and left femoral arteries for monitoring blood pressure and blood withdrawal, respectively. A sterile 1-ml syringe with a 30G needle attached to PE-10 tubing filled with 0.2 ml of 1% heparinized saline was used for blood withdrawal, and each mouse received 1U heparin. Blood pressure was monitored using a continuous blood-pressure monitoring system (Powerlab 8/30, ADInstruments, Colorado Springs, CO, USA). After 5 minutes of baseline blood pressure recording, a drug or vehicle was administered to the mice, followed by inducing shock for a period of 2.5 hours, during which the blood pressure was maintained between 28-32 mmHg by withdrawing or reinfusing the shed blood. At the end of the shock period, the mice were resuscitated with Ringer's Lactate at three times the amount of shed blood for 15 minutes (32). Three hours after resuscitation, the mice were euthanized and bronchoalveolar lavage fluid (BALF), blood, and tissue samples were collected. T/SS animals were exposed to the same procedures as other animals except for blood withdrawal (FIG. 1).
Lung, liver, kidney, and gut samples were pooled from 4 mice in the same group, homogenized, sonicated, and treated with a 1×RIPA Buffer with Protease/phosphatase inhibitor cocktail (P8340, Sigma, USA), and the resulting homogenate was centrifuged at 13.000× g for 10 minutes at 4° C. Total protein content was determined by using Qubit 4.0 Fluorometer (Thermo Fisher, USA) as per the manufacturer's instructions.
To evaluate neutrophil sequestration in the lung following T/SS or T/HS, myeloperoxidase (MPO) activity was assessed using an MPO activity kit (MAK068, Sigma, USA). The supernatant of lung lysates was assayed according to the manufacturer's instructions (32).

T/HS mice [2] = assay: Lung permeability (Evans blue dye) after trauma/hemorrhagic shock; type: in vivo; conditions: wild-type T/HS mice vs vehicle; i.p. pretreatment 30 min before shock; POM1 5 mg/kg, apyrase 125 U/kg, PSB 12379 50 mg/kg, rhCD73 2 mg/kg
Procedure: as §1, §2
Mice were re-anesthetized with isoflurane 3 hours after the end of resuscitation. Evans blue dye (EBD) technique was used to determine lung permeability. EBD was administered through the tail vein, and about 1 ml of blood was withdrawn from the tail artery five minutes later. The supernatant of BALF was assayed at 620 nm spectrophotometrically. The amount of Evans blue dye in the BALF was then expressed as a proportion of the amount in the plasma. (5, 32).

T/HS mice [3] = assay: Plasma AST and ALT levels (liver injury) after trauma/hemorrhagic shock; type: in vivo; conditions: for liver injury: T/HS mice; for T/HS-enhanced ALT level in plasma / T/HS-enhanced AST level in plasma: wild-type T/HS mice vs vehicle, i.p. pretreatment 30 min before shock
Procedure: as §1, §2
Plasma samples were analyzed to determine the levels of aspartate aminotransferase (AST) and alanine aminotransferase (ALT). To do this, the samples were diluted with AST (TR70121 Thermo Fisher, USA) and ALT (TR71122 Thermo Fisher, USA) reagents at a 1:10 ratio, and the resulting light signal was measured using a spectrophotometer at 340 and 405 nm (32).

T/HS mice [4] = assay: Plasma IL-6 and IL-10 by ELISA after trauma/hemorrhagic shock; type: in vivo; conditions: T/HS mice compared to vehicle-treated T/HS mice
Procedure: as §1, §2
IL-6 and IL-10 levels were measured in plasma samples using enzyme-linked immunosorbent assay (ELISA) kits (DY406, DY417; R&D Systems Minneapolis, USA) according to the manufacturer's instructions (32).

rat model of T/HS = conditions: posttreatment; cited from earlier work
[5] = tested on: hypoxic CD73 deficient mice; conditions: exogenous administration; cited from earlier work

Molecule | increased ischemic organ injury (CD39 deficient mice) | neutrophil sequestration / infiltration in lung (MPO activity) (T/HS mice [1]) | T/HS-induced lung injury (lung permeability, EBD method) (T/HS mice [2]) | liver injury (T/HS mice [3]) | T/HS-enhanced ALT level in plasma (T/HS mice [3]) | T/HS-enhanced AST level in plasma (T/HS mice [3]) | plasma IL-6 levels (T/HS mice [4]) | plasma IL-10 levels (T/HS mice [4]) | lung permeability (rat model of T/HS) | neutrophil infiltration into the lung (rat model of T/HS) | increased vascular permeability [5] | polymorphonuclear neutrophil extravasation [5] | neutrophil infiltration (lung MPO activity) (T/HS mice [1]; CD39-/- mice after T/HS) | neutrophil infiltration (lung MPO activity) (T/HS mice [1]; CD73-/- mice after T/HS)
apyrase | reversed | moderated | moderated | decreased | suppressed | suppressed | lower | increased |  |  |  |  |  | 
N#Cc1c(N)nc(SCC(N)=O)c(C#N)c1-c1ccc(OCC2CC2)cc1 [BAY 60-6583] |  |  |  |  |  |  |  |  | decreases | not |  |  |  | 
sodium polyoxotungstate [POM1] |  | exacerbated | exacerbated |  | increased | increased | higher | similar |  |  |  |  |  | 
O=P(O)(O)CP(=O)(O)OC[C@H]1O[C@@H](n2cnc3c(NCc4ccccc4)ncnc32)[C@H](O)[C@@H]1O.[Na].[Na] [PSB 12379, N6-Benzyl-α,β-methyleneadenosine 5′-diphosphate disodium salt] |  | increased | increased |  | increased | increased | increased | reduced |  |  |  |  |  | 
CCNC(=O)[C@H]1O[C@@H](n2cnc3c(N)ncnc32)[C@H](O)[C@@H]1O [NECA, 1-(6-Amino-9H-purin-9-yl)-1-deoxy-N-ethyl-β-D-ribofuranuronamide] |  |  |  |  |  |  |  |  |  |  | reversed | reversed | decreased | decreased
B1 |  | decreased | decreased | decreased | suppressed | suppressed | decreased | increased |  |  |  |  |  | 
